For the assay, the target named is T1, TbEIF4E5 (TbE5) (Trypanosoma brucei, UniProt Q38B99).
T1 sequence (Q38B99 1-195): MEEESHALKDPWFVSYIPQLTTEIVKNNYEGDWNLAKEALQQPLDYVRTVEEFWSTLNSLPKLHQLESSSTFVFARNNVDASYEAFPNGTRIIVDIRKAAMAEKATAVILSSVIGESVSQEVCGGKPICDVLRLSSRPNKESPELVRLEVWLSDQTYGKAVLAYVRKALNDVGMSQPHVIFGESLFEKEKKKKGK
The assay is described as follows: intrinsic protein fluorescence quenching titration. In kind it is binding.

A word on the Kd: it is the constant that tells how readily two partners part at equilibrium. Take `C[n+]1cn([C@@H]2O[C@H](COP(=O)(O)OP(=O)(O)OP(=O)(O)OC[C@H]3O[C@@H](n4cnc5c(N)ncnc54)[C@H](O)[C@@H]3O)[C@@H](O)[C@H]2O)c2nc(N)[nH]c(=O)c21` [m^7GpppA]: the Kd is 8.33 µM.

Molecule `Nc1nc2c(ncn2[C@@H]2O[C@H](COP(=O)(O)OP(=O)(O)OP(=O)(O)O)[C@@H](O)[C@H]2O)c(=O)[nH]1` [GTP] showed a Kd of approximately 27 µM.

For `C[n+]1cn([C@@H]2O[C@H](COP(=O)(O)OP(=O)(O)OP(=O)(O)O)[C@@H](O)[C@H]2O)c2nc(N)[nH]c(=O)c21` [m^7GTP], binding was put at a Kd of 1.54 µM.

Take cap 4: for the setting “50 mM HEPES/KOH pH 7.2, 100 mM KCl, 0.5 mM EDTA, 2 mM DTT, 20 °C”, the Kas stood at 0.55 ± 0.01.

The values are drawn from article PMC4105752 (RNA, 2014).
